This passage reports IC50 results from patent US11084823B2, “Substituted pyrrolo[2,1-f][1,2,4]triazines as kinase inhibitors” (Daewoong Pharmaceutical Co., Ltd., priority 2017, dated 2021).

Assay [1] deals with Recombinant purified human JAK3 (Homo sapiens (Human), UniProt P52333). The experiment in a line: JAK3 kinase inhibitory activity, ADP-Glo kinase assay kit (Promega V9441). Type of assay: biochemical. The following applies: ATP 5 uM, 4 ng JAK3 per reaction, 1 hour at 30° C., chemiluminescence. The protocol:
(§1) JAK3 and BTK kinase inhibitory activities were measured for the compounds prepared in the above Examples through in vitro analysis on the ADP Glow (Glo) platform.
(§2) Specifically, the inhibitory activities of JAK3 and BTK kinase were measured using a JAK3 kinase assay kit (Promega, V9441) and a BTK kinase assay kit (Promega, V9071) which were purchased from Promega. Recombinant purified human JAK3 and BTK were diluted with 1× kinase reaction buffer (JAK3: 40 mM Tris-Cl, pH 7.5, 20 mM MgCl2, 0.1 mg/mL BSA and 50 uM DTT/BTK: 40 mM Tris-Cl, pH 7.5, 20 mM MgCl2, 0.1 mg/mL BSA, 2 mM MnCl2 and 50 uM DTT) and added to a 96 well plate (JAK3: final concentration of 4 ng per reaction/BTK: final concentration of 8 ng per reaction). […] After incubation (30° C.) for 1 hour, equivalent volume (25 uL per reaction) of ADP Glo was added and incubated (30° C.) for 40 minutes at room temperature. Then, a kinase detection reagent (50 uL per reaction) was added and incubated (30° C.) for 30 minutes at room temperature. The kinase activity was measured by chemiluminescence according to the instructions of ADP Glo kinase assay kit, and the inhibitory activity of the compounds according to the present invention was calculated.

Assay [2] concerns the target Recombinant purified human BTK (Homo sapiens (Human), UniProt Q06187). The experiment in a line: BTK kinase inhibitory activity, ADP-Glo kinase assay kit (Promega V9071). The following applies: ATP 10 uM, 8 ng BTK per reaction, 1 hour at 30° C., chemiluminescence. It counts as biochemical. The protocol: as §1, §2

Chain of Recombinant purified human BTK (Q06187 whole entry): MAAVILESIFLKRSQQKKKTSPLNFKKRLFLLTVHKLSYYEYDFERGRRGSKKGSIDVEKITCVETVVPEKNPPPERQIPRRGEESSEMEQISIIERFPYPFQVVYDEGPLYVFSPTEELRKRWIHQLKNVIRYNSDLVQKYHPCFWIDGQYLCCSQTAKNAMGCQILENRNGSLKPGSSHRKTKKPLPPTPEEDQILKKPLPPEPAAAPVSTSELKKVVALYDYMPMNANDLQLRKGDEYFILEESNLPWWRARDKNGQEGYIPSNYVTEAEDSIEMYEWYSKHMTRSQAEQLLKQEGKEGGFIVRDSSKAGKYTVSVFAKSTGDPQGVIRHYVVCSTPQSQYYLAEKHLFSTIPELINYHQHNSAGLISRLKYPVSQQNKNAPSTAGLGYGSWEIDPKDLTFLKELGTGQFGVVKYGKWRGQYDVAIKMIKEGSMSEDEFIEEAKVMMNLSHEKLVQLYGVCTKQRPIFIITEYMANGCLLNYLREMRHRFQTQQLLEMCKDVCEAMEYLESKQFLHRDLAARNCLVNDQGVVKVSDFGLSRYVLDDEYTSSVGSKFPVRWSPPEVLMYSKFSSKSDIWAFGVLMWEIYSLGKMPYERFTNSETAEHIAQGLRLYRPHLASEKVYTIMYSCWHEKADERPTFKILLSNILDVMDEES
Chain of Recombinant purified human JAK3 (P52333 whole entry): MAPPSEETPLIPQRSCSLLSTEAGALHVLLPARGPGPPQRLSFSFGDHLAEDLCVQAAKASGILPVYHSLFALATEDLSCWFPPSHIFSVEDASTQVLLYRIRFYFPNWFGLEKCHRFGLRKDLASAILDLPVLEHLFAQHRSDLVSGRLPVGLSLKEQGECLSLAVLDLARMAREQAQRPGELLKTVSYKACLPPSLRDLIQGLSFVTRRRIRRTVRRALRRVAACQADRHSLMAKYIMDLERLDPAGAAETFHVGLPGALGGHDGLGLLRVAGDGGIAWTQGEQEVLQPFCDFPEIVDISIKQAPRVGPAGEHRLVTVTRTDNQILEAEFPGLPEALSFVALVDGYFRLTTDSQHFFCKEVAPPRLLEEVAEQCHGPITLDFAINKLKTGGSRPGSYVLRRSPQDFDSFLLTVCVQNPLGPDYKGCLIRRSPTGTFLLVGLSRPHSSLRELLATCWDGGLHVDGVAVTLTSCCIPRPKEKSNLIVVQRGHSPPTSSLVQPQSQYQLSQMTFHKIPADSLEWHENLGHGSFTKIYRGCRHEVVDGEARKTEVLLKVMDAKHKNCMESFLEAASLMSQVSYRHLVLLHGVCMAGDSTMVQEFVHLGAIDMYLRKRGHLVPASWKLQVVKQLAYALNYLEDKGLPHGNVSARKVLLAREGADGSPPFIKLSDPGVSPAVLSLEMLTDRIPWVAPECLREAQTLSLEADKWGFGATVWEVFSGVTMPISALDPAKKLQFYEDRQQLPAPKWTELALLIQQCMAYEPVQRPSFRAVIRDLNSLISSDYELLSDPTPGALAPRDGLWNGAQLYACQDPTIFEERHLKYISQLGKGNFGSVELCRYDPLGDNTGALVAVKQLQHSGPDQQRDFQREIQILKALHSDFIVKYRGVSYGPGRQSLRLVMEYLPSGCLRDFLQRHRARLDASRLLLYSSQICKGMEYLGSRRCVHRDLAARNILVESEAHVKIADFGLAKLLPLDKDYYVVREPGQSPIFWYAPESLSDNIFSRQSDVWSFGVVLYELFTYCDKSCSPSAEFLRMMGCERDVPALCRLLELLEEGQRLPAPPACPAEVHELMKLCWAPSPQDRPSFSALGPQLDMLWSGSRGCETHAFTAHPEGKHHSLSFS

Take `C=CC(=O)Nc1ccc(F)c(Oc2nc(Nc3ccc(Oc4ccccc4)cc3)nn3cccc23)c1` [Example 13, N-(4-fluoro-3-((2-((4-phenoxyphenyl)amino)pyrrolo[2,1-f][1,2,4]triazin-4-yl)oxy)phenyl)acrylamide]: the figures for the IC50 in assay [1] and in assay [2] were 0.0417 µM and 0.622 µM, respectively.

On to `C=CC(=O)Nc1cccc(Oc2nc(Nc3ccc(CN(C)C)cc3)nn3cccc23)c1` [Example 21, N-(3-((2-((4-((dimethylamino)methyl)phenyl)amino)pyrrolo[2,1-f][1,2,4]triazin-4-yl)oxy)phenyl)acrylamide], for which the figures for the IC50 in assay [1] and in assay [2] were 0.0117 µM and 0.104 µM, respectively.

For the molecule `CCn1cc(Nc2nc(Oc3cc(NC(=O)CCl)ccc3F)c3cccn3n2)cn1` [Example 43, 2-chloro-N-(3-((2-((1-ethyl-1H-pyrazol-4-yl)amino)pyrrolo[2,1-f][1,2,4]triazin-4-yl)oxy)-4-fluorophenyl)acetamide], the IC50 was found to be 0.0007 µM in assay [1] and 0.0012 µM in assay [2].

Regarding `C=CC(=O)Nc1cc(Oc2nc(Nc3cnn(CC(F)F)c3)nn3cccc23)ccc1C` [Example 48, N-(5-((2-((1-(2,2-difluoroethyl)-1H-pyrazol-4-yl)amino)pyrrolo[2,1-f][1,2,4]triazin-4-yl)oxy)-2-methylphenyl)acrylamide], the IC50 in assay [1] came to 0.0138 µM; in assay [2] it was 0.0734 µM.

In the case of `C=CC(=O)Nc1ccc(F)c(Oc2nc(Nc3cnn(CC)c3)nn3cccc23)c1` [Example 8, N-(3-((2-((1-ethyl-1H-pyrazol-4-yl)amino)pyrrolo[2,1-f][1,2,4]triazin-4-yl)oxy)-4-fluorophenyl)acrylamide], the IC50 in assay [1] was 0.0006 µM; in assay [2], 0.0077 µM.

With `C=CC(=O)Nc1ccc(F)c(Oc2nc(Nc3ccc(-n4nc(C)cc4C)cc3)nn3cccc23)c1` [Example 39, N-(3-((2-((4-(3,5-dimethyl-1H-pyrazol-1-yl)phenyl)amino)pyrrolo[2,1-f][1,2,4]triazin-4-yl)oxy)-4-fluorophenyl)acrylamide], the IC50 in assay [1] was found to be 0.0235 µM; in assay [2], 0.111 µM.

Turning to `C=CC(=O)Nc1cccc(Oc2nc(Nc3ccc(C(C)C)cc3)nn3cccc23)c1` [Example 16, N-(3-((2-((4-isopropylphenyl)amino)pyrrolo[2,1-f][1,2,4]triazin-4-yl)oxy)phenyl)acrylamide], the IC50 in assay [1] was 0.02 µM; in assay [2] it was 0.123 µM.

With `C=CC(=O)Nc1cccc(Oc2nc(Nc3ccc(N4CCN(C)CC4)cc3)nn3cccc23)c1` [Example 2, N-(3-((2-((4-(4-methylpiperazin-1-yl)phenyl)amino)pyrrolo[2,1-f][1,2,4]triazin-4-yl)oxy)phenyl)acrylamide], the IC50 in assay [1] was found to be 0.0028 µM; in assay [2], 0.0227 µM.

For the molecule `C=CC(=O)Nc1cccc(Oc2nc(Nc3ccc(N(C)C)cc3)nn3cccc23)c1` [Example 23, N-(3-((2-((4-(dimethylamino)phenyl)amino)pyrrolo[2,1-f][1,2,4]triazin-4-yl)oxy)phenyl)acrylamide], the IC50 was found to be 0.0104 µM in assay [1] and 0.0602 µM in assay [2].

As for `C=CC(=O)Nc1ccc(F)c(Oc2nc(Nc3ccc(N4CCOCC4)cc3)nn3cccc23)c1` [Example 31, N-(4-fluoro-3-((2-((4-morpholinophenyl)amino)pyrrolo[2,1-f][1,2,4]triazin-4-yl)oxy)phenyl)acrylamide], the IC50 is 0.0045 µM in assay [1] and 0.0274 µM in assay [2].

With `C=CC(=O)Nc1cccc(Oc2nc(Nc3ccc(OC)cc3)nn3cccc23)c1` [Example 17, N-(3-((2-((4-methoxyphenyl)amino)pyrrolo[2,1-f][1,2,4]triazin-4-yl)oxy)phenyl)acrylamide], the IC50 was found to be 0.0059 µM in assay [1] and 0.0686 µM in assay [2].

For `C=CC(=O)Nc1ccc(F)c(Oc2nc(Nc3cnn(C4CCNCC4)c3)nn3cccc23)c1` [Example 37, N-(4-fluoro-3-((2-((1-(piperidin-4-yl)-1H-pyrazol-4-yl)amino)pyrrolo[2,1-f][1,2,4]triazin-4-yl)oxy)phenyl)acrylamide], the IC50 in assay [1] was found to be 0.0115 µM; in assay [2] it was 0.0636 µM.

On to `C=CC(=O)Nc1cccc(Oc2nc(Nc3ccc(C(=O)N4CCOCC4)cc3)nn3cccc23)c1` [Example 18, N-(3-((2-((4-(morpholine-4-carbonyl)phenyl)amino)pyrrolo[2,1-f][1,2,4]triazin-4-yl)oxy)phenyl)acrylamide], for which the IC50 in assay [1] was determined as 0.0022 µM; in assay [2] it was 0.0378 µM.

`C=CC(=O)Nc1ccc(F)c(Oc2nc(Nc3ccn(C)c3)nn3cccc23)c1` [Example 9, N-(4-fluoro-3-((2-((1-methyl-1H-pyrrol-3-yl)amino)pyrrolo[2,1-f][1,2,4]triazin-4-yl)oxy)phenyl)acrylamide]: the IC50 in assay [1] worked out at 0.0168 µM; in assay [2], 0.243 µM.

`C=CC(=O)Nc1cccc(Oc2nc(Nc3cc4n(n3)CCN(C)C4)nn3cccc23)c1` [Example 24, N-(3-((2-((5-methyl-4,5,6,7-tetrahydropyrazolo[1,5-a]pyrazin-2-yl)amino)pyrrolo[2,1-f][1,2,4]triazin-4-yl)oxy)phenyl)acrylamide]: the values for the IC50 in assay [1] and in assay [2] were 0.0188 µM and 0.166 µM, respectively.

As for `C=CC(=O)Nc1cccc(Oc2nc(Nc3ccc(N4CCOCC4)cc3)nn3cccc23)c1` [Example 22, N-(3-((2-((4-morpholinophenyl)amino)pyrrolo[2,1-f][1,2,4]triazin-4-yl)oxy)phenyl)acrylamide], the IC50 in assay [1] was 0.0053 µM; in assay [2] it was 0.0354 µM.

Turning to `C=CC(=O)Nc1ccc(F)c(Oc2nc(Nc3cnn(CC(C)C)c3)nn3cccc23)c1` [Example 10, N-(4-fluoro-3-((2-((1-isobutyl-1H-pyrazol-4-yl)amino)pyrrolo[2,1-f][1,2,4]triazin-4-yl)oxy)phenyl)acrylamide], the IC50 in assay [1] was 0.0096 µM; in assay [2], 0.113 µM.

Turning to `C=CC(=O)Nc1ccc(F)c(Oc2nc(Nc3cnn(CCC)c3)nn3cccc23)c1` [Example 32, N-(4-fluoro-3-((2-((1-propyl-1H-pyrazol-4-yl)amino)pyrrolo[2,1-f][1,2,4]triazin-4-yl)oxy)phenyl)acrylamide], the results for the IC50 in assay [1] and in assay [2] were 0.0014 µM and 0.0091 µM, respectively.

`C=CC(=O)Nc1ccc(F)c(Oc2nc(Nc3cccnc3)nn3cccc23)c1` [Example 15, N-(4-fluoro-3-((2-((pyridin-3-yl)amino)pyrrolo[2,1-f][1,2,4]triazin-4-yl)oxy)phenyl)acrylamide]: the IC50 in assay [1] is 0.0155 µM; in assay [2], 0.104 µM.

Regarding `O=C(CCl)Nc1ccc(F)c(Oc2nc(Nc3cnn(C4CCOCC4)c3)nn3cccc23)c1` [Example 42, 2-chloro-N-(4-fluoro-3-((2-((1-(tetrahydro-2H-pyran-4-yl)-1H-pyrazol-4-yl)amino)pyrrolo[2,1-f][1,2,4]triazin-4-yl)oxy)phenyl)acetamide], the IC50 in assay [1] is 0.0005 µM; in assay [2], 0.0013 µM.

As for `C=CC(=O)Nc1ccc(F)c(Oc2nc(Nc3ccc(OC)cc3)nn3cccc23)c1` [Example 28, N-(4-fluoro-3-((2-((4-methoxyphenyl)amino)pyrrolo[2,1-f][1,2,4]triazin-4-yl)oxy)phenyl)acrylamide], the IC50 in assay [1] was determined as 0.0092 µM; in assay [2], 0.052 µM.

For the molecule `C=CC(=O)Nc1ccc(F)c(Oc2nc(Nc3ccc(C(=O)N4CCOCC4)cc3)nn3cccc23)c1` [Example 29, N-(4-fluoro-3-((2-((4-(morpholine-4-carbonyl)phenyl)amino)pyrrolo[2,1-f][1,2,4]triazin-4-yl)oxy)phenyl)acrylamide], the IC50 in assay [1] stood at 0.002 µM; in assay [2], 0.0231 µM.

On to `C=CC(=O)Nc1ccc(F)c(Oc2nc(Nc3cnn(CCOC)c3)nn3cccc23)c1` [Example 40, N-(4-fluoro-3-((2-((1-(2-methoxyethyl)-1H-pyrazol-4-yl)amino)pyrrolo[2,1-f][1,2,4]triazin-4-yl)oxy)phenyl)acrylamide], for which the IC50 was 0.0028 µM in assay [1] and 0.023 µM in assay [2].

`C=CC(=O)Nc1cccc(Oc2nc(Nc3cnn(C4CC4)c3)nn3cccc23)c1` [Example 11, N-(3-((2-((1-cyclopropyl-1H-pyrazol-4-yl)amino)pyrrolo[2,1-f][1,2,4]triazin-4-yl)oxy)phenyl)acrylamide]: the IC50 in assay [1] turned out to be 0.0103 µM; in assay [2] it was 0.107 µM.

With `C=CC(=O)Nc1ccc(F)c(Oc2nc(Nc3ccc(N(C)C)cc3)nn3cccc23)c1` [Example 12, N-(3-((2-((4-(dimethylamino)phenyl)amino)pyrrolo[2,1-f][1,2,4]triazin-4-yl)oxy)-4-fluorophenyl)acrylamide], the IC50 came out at 0.0007 µM in assay [1] and 0.0075 µM in assay [2].

With `O=C(CCl)Nc1ccc(F)c(Oc2nc(Nc3cnn(CC(F)F)c3)nn3cccc23)c1` [Example 41, 2-chloro-N-(3-((2-((1-(2,2-difluoroethyl)-1H-pyrazol-4-yl)amino)pyrrolo[2,1-f][1,2,4]triazin-4-yl)oxy)-4-fluorophenyl)acetamide], the values for the IC50 in assay [1] and in assay [2] were 0.0007 µM and 0.0012 µM, respectively.

Consider `C=CC(=O)Nc1ccc(F)c(Oc2nc(Nc3cnn(C(C)C)c3)nn3cccc23)c1` [Example 36, N-(4-fluoro-3-((2-((1-isopropyl-1H-pyrazol-4-yl)amino)pyrrolo[2,1-f][1,2,4]triazin-4-yl)oxy)phenyl)acrylamide], for which the IC50 amounted to 0.0011 µM in assay [1] and 0.0044 µM in assay [2].

As a reminder, the IC50 is the concentration at which inhibition is half-maximal.
